Experimental data reported in patent publication US20180244611A1, “Modulators of the Cystic Fibrosis Transmembrane Conductance Regulator Protein and Methods of Use” (AbbVie S.à.r.l., priority 2017, published 2018).
pEC50: −log10 of the molar value.

Columns and labels:
F508delCFTR [1] = biological target: T1, F508delCFTR (Homo sapiens, UniProt P13569, DEL508-508); assay: Cell Surface Expression-Horse Radish Peroxidase (CSE-HRP) assay, test compound with co-corrector; assay type: cell-based; conditions: with 2 μM co-corrector; for Maximum % activity (with co-corrector): maximum at any tested concentration, normalized to positive control;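 as to Maximum % activity (with co-corrector): percent of 2 µM positive control corrector over DMSO; co-corrector is that same compound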
T1 construct: expressed in transfected cells; host or cells: CFBE41o- human lung-derived epithelial cells (CFBE41o-F508delCFTR-HRP), doxycycline-inducible
T1 sequence (P13569 with tags, fused parts or gaps DEL508-508): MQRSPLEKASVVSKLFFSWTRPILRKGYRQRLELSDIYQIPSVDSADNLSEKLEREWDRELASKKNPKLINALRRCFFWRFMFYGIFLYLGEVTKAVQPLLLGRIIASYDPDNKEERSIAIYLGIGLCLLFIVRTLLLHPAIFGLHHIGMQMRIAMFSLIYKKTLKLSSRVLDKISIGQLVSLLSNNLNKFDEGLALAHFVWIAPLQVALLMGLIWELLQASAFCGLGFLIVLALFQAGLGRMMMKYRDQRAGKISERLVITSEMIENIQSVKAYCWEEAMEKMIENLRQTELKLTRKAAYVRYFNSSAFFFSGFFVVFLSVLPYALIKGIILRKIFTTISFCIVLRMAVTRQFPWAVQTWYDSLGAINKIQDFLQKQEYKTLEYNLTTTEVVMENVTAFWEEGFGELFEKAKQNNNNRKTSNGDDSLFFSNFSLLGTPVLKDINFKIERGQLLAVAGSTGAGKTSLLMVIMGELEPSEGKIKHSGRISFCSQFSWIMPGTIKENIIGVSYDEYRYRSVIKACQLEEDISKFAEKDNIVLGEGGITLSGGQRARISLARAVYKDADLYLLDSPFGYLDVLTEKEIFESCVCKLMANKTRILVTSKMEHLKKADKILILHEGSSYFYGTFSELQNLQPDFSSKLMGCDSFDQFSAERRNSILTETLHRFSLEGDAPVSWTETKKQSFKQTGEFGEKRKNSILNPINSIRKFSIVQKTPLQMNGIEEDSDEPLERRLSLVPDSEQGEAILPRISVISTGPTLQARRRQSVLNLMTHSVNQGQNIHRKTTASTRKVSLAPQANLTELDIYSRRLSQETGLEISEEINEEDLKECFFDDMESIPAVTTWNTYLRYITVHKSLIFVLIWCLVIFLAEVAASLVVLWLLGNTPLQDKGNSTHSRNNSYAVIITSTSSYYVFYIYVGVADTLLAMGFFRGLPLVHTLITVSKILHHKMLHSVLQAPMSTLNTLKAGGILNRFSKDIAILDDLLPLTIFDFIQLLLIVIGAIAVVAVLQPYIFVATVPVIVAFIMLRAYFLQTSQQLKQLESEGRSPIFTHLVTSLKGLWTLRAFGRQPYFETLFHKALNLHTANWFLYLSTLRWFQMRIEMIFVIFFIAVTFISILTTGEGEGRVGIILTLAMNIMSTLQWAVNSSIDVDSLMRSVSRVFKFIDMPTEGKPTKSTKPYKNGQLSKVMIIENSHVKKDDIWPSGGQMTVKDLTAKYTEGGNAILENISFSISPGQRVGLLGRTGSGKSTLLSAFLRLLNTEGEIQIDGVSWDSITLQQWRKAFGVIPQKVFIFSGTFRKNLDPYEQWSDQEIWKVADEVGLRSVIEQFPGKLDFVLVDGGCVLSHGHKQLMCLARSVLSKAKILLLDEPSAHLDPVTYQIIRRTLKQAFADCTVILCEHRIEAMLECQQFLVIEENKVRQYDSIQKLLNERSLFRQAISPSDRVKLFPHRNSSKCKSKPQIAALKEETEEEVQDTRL
Outline: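 Surface-expression read-out: luminol luminescence from an HRP tag in the fourth exofacial loop of F508delCFTR, in doxycycline-induced (0.5 μg/mL, 72 h) CFBE41o- cells. Compound plus 2 μM co-corrector added for 18-24 h at 33° C., 8-point 3-fold series up to 20 μM. EC50 from a sigmoidal fit with variable Hill slope, normalised to positive control, triplicate plates.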

F508delCFTR [2] = biological target: T1, F508delCFTR; assay: Cell Surface Expression-Horse Radish Peroxidase (CSE-HRP) assay, test compound without co-corrector; assay type: cell-based; conditions: for Emax: maximum at any tested concentration, normalized to positive control, without co-corrector; for pEC50: test compound without co-corrector;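 as to Emax: percent of on-plate 2 µM positive control corrector response over DMSO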
Outline: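 Compound without co-corrector was tested at eight 3-fold concentrations, top 20 μM, for 18-24 h at 33° C on doxycycline-induced (0.5 μg/mL, 72 h) CFBE41o- F508delCFTR-HRP cells. After DPBS washes, luminol luminescence gave % activity relative to on-plate positive control minus DMSO; EC50 came from triplicate-plate sigmoidal fitting.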

Row | Compound | Maximum % activity (with co-corrector) (F508delCFTR [1]) | pEC50 (F508delCFTR [1]) | Emax (F508delCFTR [2]) [%] | pEC50 (F508delCFTR [2])
1 | COc1cccc2c1CCC2C(=O)NS(=O)(=O)c1ccc(NC(C)=O)cc1 (centres unmarked) [III-41] | + (<150) | ≤ 5.00 | < 50 | ≤ 5.00
2 | COc1cccc2c1CCC2C(=O)NS(=O)(=O)c1ccc(NC(C)=O)cc1Cl (centres unmarked) [III-42] | + (<150) | ≤ 5.00 | < 50 | ≤ 5.00
3 | CCCC(=O)Nc1ccc(S(=O)(=O)NC(=O)C2CCc3c(OC)cccc32)cc1 (centres unmarked) [III-43] | + (<150) | ≤ 5.00 | < 50 | ≤ 5.00
4 | COc1cccc2c1CCC2C(=O)NS(=O)(=O)c1c(C)nn(C)c1Cl (centres unmarked) [III-44] | + (<150) | ≤ 5.00 | < 50 | ≤ 5.00
5 | COc1cccc2c1CCC2C(=O)NS(=O)(=O)c1c(C)nc(O)nc1O (centres unmarked) [III-45] | + (<150) | ≤ 5.00 | < 50 | ≤ 5.00
6 | COc1cccc2c1CCC2C(=O)NS(=O)(=O)c1ccc(C#N)cc1 (centres unmarked) [III-46] | + (<150) | ≤ 5.00 | < 50 | ≤ 5.00
7 | COc1cccc2c1CCC2C(=O)NS(=O)(=O)c1ccc2oc(=O)ccc2c1 (centres unmarked) [III-47] | + (<150) | ≤ 5.00 | < 50 | ≤ 5.00
8 | CCOC(=O)c1ccc(S(=O)(=O)NC(=O)C2CCc3c(OC)cccc32)cc1 (centres unmarked) [III-48] | + (<150) | ≤ 5.00 | < 50 | ≤ 5.00
9 | COc1cccc2c1CCC2C(=O)NS(=O)(=O)c1ccc(C)c([N+](=O)[O-])c1C (centres unmarked) [III-49] | ++ (≥150 and <350) | 5.00 to 5.52 | < 50 | ≤ 5.00
10 | COc1cccc2c1CCC2C(=O)NS(=O)(=O)c1cc(C(=O)Nc2c(C)cccc2C)c(O)cc1Cl (centres unmarked) [III-50] | + (<150) | ≤ 5.00 | < 50 | ≤ 5.00
11 | COc1cccc2c1CCC2C(=O)NS(=O)(=O)c1c(C)nn(CCCl)c1C (centres unmarked) [III-51] | + (<150) | ≤ 5.00 | < 50 | ≤ 5.00
12 | CCN1CCC[C@H]1CNC(=O)c1cc(S(=O)(=O)NC(=O)C2CCc3c(OC)cccc32)ccc1OC (some centres unmarked) [III-52] | + (<150) | ≤ 5.00 | < 50 | ≤ 5.00
13 | CCOc1ccc2nc(S(=O)(=O)NC(=O)C3CCc4c(OC)cccc43)sc2c1 (centres unmarked) [III-53] | + (<150) | ≤ 5.00 | < 50 | ≤ 5.00
14 | CCCCCC(=O)c1ccc(S(=O)(=O)NC(=O)C2CCc3c(OC)cccc32)cc1 (centres unmarked) [III-54] | + (<150) | ≤ 5.00 | < 50 | ≤ 5.00
15 | COc1cccc2c1CCC2C(=O)NS(=O)(=O)c1ccc(N2CCN(CC[C@@H]3OCCc4ccccc43)CC2)cc1 (some centres unmarked) [III-55] | + (<150) | 5.00 to 5.52 | < 50 | ≤ 5.00
16 | COc1cccc2c1CCC2C(=O)NS(=O)(=O)c1ccccc1C(=O)OC(C)C (centres unmarked) [III-56] | +++ (≥350) | 5.00 to 5.52 | 50 to 150 | 5.00 to 5.52
17 | COc1cccc2c1CCC2C(=O)NS(=O)(=O)c1ccc(NCCC(C)(C)O)c([N+](=O)[O-])c1 (centres unmarked) [III-57] | + (<150) | ≤ 5.00 | < 50 | ≤ 5.00
18 | COc1cccc2c1CCC2C(=O)NS(=O)(=O)c1cc(-c2nc3c([nH]2)c(=O)n(C)c(=O)n3C)ccc1Cl (centres unmarked) [III-58] | ++ (≥150 and <350) | 5.00 to 5.52 | < 50 | 5.00 to 5.52

Row | Compound | Maximum % activity (with co-corrector) (F508delCFTR [1]) | pEC50 (F508delCFTR [1]) | Emax (F508delCFTR [2]) [%] | pEC50 (F508delCFTR [2])
19 | COc1cccc2c1CCC2C(=O)NS(=O)(=O)c1nc2c(c(=O)n(C)c(=O)n2C)n1Cc1ccc(Cl)cc1 (centres unmarked) [III-59] | + (<150) | ≤ 5.00 | < 50 | ≤ 5.00
20 | COc1cccc2c1CCC2C(=O)NS(=O)(=O)c1nc2c(=O)n(C)c(=O)n(C)c2n1Cc1ccccc1 (centres unmarked) [III-60] | + (<150) | ≤ 5.00 | < 50 | ≤ 5.00
21 | COc1cccc2c1CCC2C(=O)NS(=O)(=O)c1ccc(CN(C)C)cc1 (centres unmarked) [III-61] | + (<150) | ≤ 5.00 | < 50 | ≤ 5.00
22 | COc1cccc2c1CCC2C(=O)NS(=O)(=O)c1cccc(F)c1C#N (centres unmarked) [III-62] | + (<150) | 5.00 to 5.52 | < 50 | ≤ 5.00
23 | COc1cccc2c1CCC2C(=O)NS(=O)(=O)c1ccc(O)c([N+](=O)[O-])c1 (centres unmarked) [III-63] | + (<150) | ≤ 5.00 | < 50 | ≤ 5.00
24 | COc1cccc2c1CCC2C(=O)NS(=O)(=O)c1cccc(C#N)c1 (centres unmarked) [III-64] | + (<150) | ≤ 5.00 | < 50 | ≤ 5.00
25 | COc1cccc2c1CCC2C(=O)NS(=O)(=O)c1cncc(Br)c1 (centres unmarked) [III-65] | + (<150) | ≤ 5.00 | < 50 | ≤ 5.00
26 | COc1cccc2c1CCC2C(=O)NS(=O)(=O)c1ccc(O)nc1 (centres unmarked) [III-66] | + (<150) | ≤ 5.00 | < 50 | ≤ 5.00
27 | COc1cccc2c1CCC2C(=O)NS(=O)(=O)c1c(C(=O)OC(C)(C)C)c(C)nn1C (centres unmarked) [III-68] | + (<150) | ≤ 5.00 | < 50 | ≤ 5.00
28 | COc1cccc2c1CCC2C(=O)NS(=O)(=O)c1c(CO)c(C)nn1C (centres unmarked) [III-69] | + (<150) | ≤ 5.00 | < 50 | ≤ 5.00
29 | COc1cccc2c1CCC2C(=O)NS(=O)(=O)c1cccc(Cl)c1F (centres unmarked) [III-70] | + (<150) | ≤ 5.00 | < 50 | ≤ 5.00
30 | COc1cccc2c1CCC2C(=O)NS(=O)(=O)c1c(F)cccc1F (centres unmarked) [III-71] | ++ (≥150 and <350) | 5.00 to 5.52 | < 50 | ≤ 5.00
31 | COc1ccc2c(c1OC)CCC2C(=O)NS(=O)(=O)c1ccccc1C (centres unmarked) [III-72] | + (<150) | ≤ 5.00 | < 50 | ≤ 5.00
32 | COc1cccc2c1CCC2C(=O)NS(=O)(=O)c1cc(Cl)ccc1F (centres unmarked) [III-73] | + (<150) | ≤ 5.00 | < 50 | ≤ 5.00
33 | COc1cccc2c1CCC2C(=O)NS(=O)(=O)c1cc(F)ccc1F (centres unmarked) [III-74] | + (<150) | ≤ 5.00 | < 50 | ≤ 5.00
34 | COc1cccc2c1CCC2C(=O)NS(=O)(=O)c1cc(F)ccc1Cl (centres unmarked) [III-75] | + (<150) | ≤ 5.00 | < 50 | ≤ 5.00
35 | COc1cccc2c1CCC2C(=O)NS(=O)(=O)c1c(Cl)cccc1Cl (centres unmarked) [III-76] | + (<150) | ≤ 5.00 | < 50 | ≤ 5.00
